doi:10.1101/2025.11.13.688260v1 (biorxiv, 2025)

Molecular target: human CBL-B (Homo sapiens, UniProt Q13191)
Assay: TR-FRET ubiquitin ligase assay
Type: biochemical

Sequence of human CBL-B (Q13191 whole entry): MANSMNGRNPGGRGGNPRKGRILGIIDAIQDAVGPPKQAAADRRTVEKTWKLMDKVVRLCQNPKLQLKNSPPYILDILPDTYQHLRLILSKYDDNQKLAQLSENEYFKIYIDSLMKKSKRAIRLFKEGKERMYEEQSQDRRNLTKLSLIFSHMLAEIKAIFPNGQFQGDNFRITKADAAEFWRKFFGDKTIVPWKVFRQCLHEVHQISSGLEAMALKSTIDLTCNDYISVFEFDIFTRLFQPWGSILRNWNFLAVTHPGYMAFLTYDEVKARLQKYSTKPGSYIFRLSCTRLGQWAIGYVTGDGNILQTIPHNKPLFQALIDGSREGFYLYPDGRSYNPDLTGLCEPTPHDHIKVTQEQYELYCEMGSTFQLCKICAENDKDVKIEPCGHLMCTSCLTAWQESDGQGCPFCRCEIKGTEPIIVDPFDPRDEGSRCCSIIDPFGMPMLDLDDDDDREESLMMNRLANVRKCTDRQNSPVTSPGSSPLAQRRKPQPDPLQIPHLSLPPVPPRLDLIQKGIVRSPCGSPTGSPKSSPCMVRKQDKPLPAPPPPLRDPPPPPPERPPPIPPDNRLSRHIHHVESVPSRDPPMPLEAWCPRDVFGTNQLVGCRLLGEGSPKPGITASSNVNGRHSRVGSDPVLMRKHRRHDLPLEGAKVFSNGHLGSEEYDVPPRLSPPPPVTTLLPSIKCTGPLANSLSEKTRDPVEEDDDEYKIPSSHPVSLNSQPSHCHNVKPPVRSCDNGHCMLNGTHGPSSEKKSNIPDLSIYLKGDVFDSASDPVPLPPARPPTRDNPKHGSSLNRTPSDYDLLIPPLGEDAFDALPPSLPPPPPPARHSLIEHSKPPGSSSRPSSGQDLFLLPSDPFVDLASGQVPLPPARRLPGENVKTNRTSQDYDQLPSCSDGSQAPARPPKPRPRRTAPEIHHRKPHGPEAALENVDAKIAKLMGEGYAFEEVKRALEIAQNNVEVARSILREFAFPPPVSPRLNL

Row | IC50 | SMILES
1 | 16.8 nM | C[C@H]1CCCN(Cc2cccc3cc(-c4cccc([C@]5(c6nncn6C)C[C@@H](C)C5)c4)c(=O)[nH]c23)C1 [compound 6, Cmpd. 6]
2 | 19.7 nM | CC(NC1CCCC1)c1ccc(F)c2cc(-c3cccc([C@]4(c5nncn5C)C[C@@H](C)C4)c3)c(=O)[nH]c12 (stereo partly drawn) [compound 12, Cmpd. 12]
3 | 1190 nM | Cn1cnnc1[C@]1(c2cccc(-c3cc4ccccc4[nH]c3=O)c2)C[C@H](C)C1 [compound 4, Cmpd. 4]
